Data: patent US20240166703A1, “ANTI-INFLAMMATORY PEPTIDE AND METHOD OF USE THEREOF” (The Regents of the University of California, priority 2021, published 2024)

System: NF-κB DNA binding in MEF cells
Assay: EMSA of NF-κB DNA binding in TNF-α-treated MEF cells
Format: cell-based, mouse
Settings: peptide 10-50 μM
Protocol: To prepare nuclear and cytoplasmic protein extracts, HeLa, MEF, and RAW 264.7 cells were lysed in buffer containing 4.3 mM Na2HPO4, 1.47 mM KH2PO4 pH 7.4, 137 mM NaCl, 2.7 mM KCl, 1 mM DTT, 0.05% (v/v) NP-40, and 1×protease inhibitor cocktail for 10 minutes on ice and spun at 3,000 rpm at 4° C. for 10 minutes. The supernatant containing the cytoplasmic fraction was quantified by Bio-Rad protein assay to determine the total amount of protein. […] Finally, samples were centrifuged at 13,000 rpm at 4° C. for 20 minutes, and supernatants containing the soluble nuclear fraction were measured by the Bio-Rad protein assay to determine the total amount of protein. […]
Electrophoretic mobility shift assay (EMSA) was performed using recombinant full length NF-κB ReIA homodimer as a positive control as previously described (45). […] The amount of protein in lysates was quantified by Bio-Rad protein assay. EMSA analysis with quantitative densitometry and signal intensity was quantitated using ImageJ software. […]
It was then tested if the observed effect is universal across species and cell types. […] The effect of TAT-NEMO^ActPep on NF-κB DNA binding was also analyzed in MEF cells by EMSA.

## TAT-NEMO^ActPep: HIV-1 TAT fused flexibly to human NEMO amino acids 375-391; cell permeable version of NEMO activation peptide (SEQ ID NO 2) (YGRKKRRQRRRGGLSSPLALPSQRRSPPEE)
  NF-κB activation in response to TNF-α (EMSA): inhibited NF-κB activation
